Results: patent US20070202085A1, “Systems and methods for monitoring immune responses and predicting outcomes in transplant recipients” (Renovar Incorporated, priority 2006, published 2007)
Several values for one entry are separate records, joined by “and”; a condition that tells them apart may be missing. Identical values can stand only once.

Key:
[1] = tested on: recipient T cells (alloreactivity to donor antigen); assay: GM-CSF kinetics assay in the 5-day CFSE-MLR of renal allograft patients; format: cell-based, human; design: key: HYPO: hyporesponsive; EQL: equal response to donor and third-party antigen; HYPR: hyperresponsive to donor Ag; UN: no response to donor Ag; details: per patient, month 12, response to donor versus third-party antigen
Description: CFSE-MLR Assay. Blood was collected at 12 months post-transplant, and PBMC's purified by Ficoll gradient separation. Recipient PBMC's were labeled with 5.0 μM CFSE for 10 minutes at 37° C., upon which 1 ml of cold FCS was added to stop further staining. Cells were then washed once in complete media, and used as responder cells in an MLR in which both proliferation and kinetics of cytokine expression were measured in response to irradiated donor, third party, or autologous stimulator PBMC's. The number of class I and class II MHC mismatches between host/donor and host/third party were kept as consistent as possible with the available third parties from which to choose. A total of 2×10^5 responder and 2×10^5 stimulator cells/well were added to a 96-well round-bottom plate, in a total of 200 μl/well complete RPMI with 15% FCS. […] On day 5, T cell proliferation was measured by flow cytometry using PE-conjugated anti-CD3, CD4, and CD8 antibodies. Live cells were gated out by PI, and subsequent PE-positive cells in the lymphocyte gate were analyzed for their loss of CFSE intensity. […] Proliferation was analyzed using FlowJo software (Tree Star, Inc.).
Cytokine Kinetics Test. Cytokine expression levels in the MLR supernatants were measured using a multi-cytokine fluorescent bead detection system (BeadLyte, Upstate, Inc.). […]

[2] = tested on: peripheral blood T cells (CD3), B cells (CD20), monocytes (CD14), lymphocytes; assay: Leukocyte repopulation in peripheral blood of renal allograft patients; format: in vivo, human
Description: (§1) Patients and Protocol Therapy. Primary renal allograft patients received a non-HLA-identical kidney from either cadaveric or living donors. Subjects were 18-60 years of age and had between 1-6 MHC antigen mismatches with the kidney allograft. Kidney transplant recipients were given CAMPATH-1H (Alemtuzumab, ILEX Oncology, Inc.) at day −1 and day 0 of transplant (40 mg total dose), followed by long-term treatment with rapamycin at levels averaging 9 ng/ml. […] Another […] patients were enrolled in the control arm. The latter group received anti-CD25 (Basiliximab, Novartis, East Hanover, N.J.) induction therapy, along with conventional long-term immunosuppressants (CsA, steroids, and MMF). All patients gave written informed consent to participate in the study. The protocol was given approval by the Institutional Review Board at the University of Wisconsin-Madison.
In renal allograft recipients treated with CAMPATH-1H, immunodepletion is profound, with a 2-3 log reduction in peripheral lymphocytes at the outset (See, e.g., Brett et al., Immunology 1996, 88,13). […] Although monocytes and B cells recovered to baseline numbers by 3 and 12-months, respectively, T cell levels were slow to repopulate, recovering to approximately 50% baseline by 36 months. CD4+ and CD8+ T cell subsets were at an approximate 2:1 ratio pre-transplant, yet CD8+ T cells recovered at a relatively constant 1:1 ratio with CD4+ cells in CAMPATH-treated patients (See FIG. 6b).

[3] = tested on: recipient T cells (alloreactivity to donor antigen); assay: IFN-γ kinetics assay in the 5-day CFSE-MLR of renal allograft patients; format: cell-based, human; design: key to IFN-γ assay: HYPO: hyporesponsive; EQL: equal response to donor and third-party antigen; HYPR: hyperresponsive to donor Ag; UN: no response to donor Ag; details: for IFN-γ assay: per patient, month 12, response to donor versus third-party antigen
Description: CFSE-MLR Assay. Blood was collected at 12 months post-transplant, and PBMC's purified by Ficoll gradient separation. Recipient PBMC's were labeled with 5.0 μM CFSE for 10 minutes at 37° C., upon which 1 ml of cold FCS was added to stop further staining. Cells were then washed once in complete media, and used as responder cells in an MLR in which both proliferation and kinetics of cytokine expression were measured in response to irradiated donor, third party, or autologous stimulator PBMC's. The number of class I and class II MHC mismatches between host/donor and host/third party were kept as consistent as possible with the available third parties from which to choose. A total of 2×10^5 responder and 2×10^5 stimulator cells/well were added to a 96-well round-bottom plate, in a total of 200 μl/well complete RPMI with 15% FCS. Cultures were set up in quintuplet wells such that the supernatants could be collected every 24 hours during the 5-day MLR. On day 5, T cell proliferation was measured by flow cytometry using PE-conjugated anti-CD3, CD4, and CD8 antibodies. Live cells were gated out by PI, and subsequent PE-positive cells in the lymphocyte gate were analyzed for their loss of CFSE intensity. On average, 4000 live lymphocytes were acquired for analysis using CellQuest software and a FACSCAN flow cytometer. Proliferation was analyzed using FlowJo software (Tree Star, Inc.).
Cytokine Kinetics Test. Cytokine expression levels in the MLR supernatants were measured using a multi-cytokine fluorescent bead detection system (BeadLyte, Upstate, Inc.). Fifty μl of Day 1-5 supernatants were utilized to analyze the cytokines: IL-1β, IL-2, IL-4, IL-6, IL-8, IL-10, IL-12, GM-CSF, TNF-α, and IFN-γ.
Additional information was obtained from the 5-day CFSE-MLR by collecting supernatants at 24-hour intervals and analyzing them for the expression of IFN-γ. The kinetic patterning gave a comprehensive picture of alloreactivity which could be categorized into 4 distinct groups: 1) patients who responded equally well to donor and third party antigen, 2) those who were hypo-responsive to donor, 3) those who were hyper-responsive to donor, and 4) those who were completely unresponsive to donor as opposed to third party antigen (See FIG. 4). […] Statistically, there was no bias in the hypo- (P=0.51) or hyper-responsive (P=0.73) groups using the 1-tailed Fisher's exact test. […] Therefore, the donor unresponsiveness of these 4 patients cannot simply be attributed to low T cell counts. Taken together, the present invention provides that CAMPATH-rapamycin immunotherapy promotes T cell unresponsiveness in at least a subset of renal allograft recipients.

[4] = tested on: CD3+, CD4+ and CD8+ recipient T cells; assay: CFSE-MLR proliferation assay with recipient PBMC; format: cell-based, human; details: patient UW19, response to third party antigen, 12 months
Description: To examine the proliferative response of host T cells to donor antigen, purified responder PBMC's were labeled with CFSE. In an effort to keep the APC source constant, only PBMC's from living donors and third parties were used.
For simplicity, the loss of CFSE intensity was designated “percent proliferation” or “percent CFSE low” (e.g., even though, generally, this is a measure of the actual number of daughter cells initially involved in the response).

kidney allograft = assay: Protocol kidney biopsy after transplantation; format: in vivo, human; details: for M12 biopsy: kidney biopsy 12 months after transplantation, per patient
Description: as §1
Among the 15 CAMPATH-treated recipients, 10 used a single drug (9 with Sirolimus and 1 with Tacrolimus) for their maintenance immunosuppressive therapy. […] In the control group, all 8 patients were treated with a combination of CsA, MMF and prednisone for their immunosuppressive maintenance.

[5] = tested on: peripheral blood T cells (CD3), B cells (CD20), monocytes (CD14), lymphocytes; details: renal allograft recipients, at the outset; cited from earlier work
[6] = IFN-γ kinetics, 12 months, n=15 Campath, n=8 Control
[7] = maintenance Tacrolimus, prednisone

Substance: Campath: humanized monoclonal antibody that binds CD52; induction therapy followed by long-term rapamycin
- GM-CSF assay [1]: UN (4×) and HYPO (7×) and HYPR (2×) and EQL^a and EQL
- T cell levels recovered ([2]; by 36 months): approximately 50 % baseline
- lymphocyte repopulation (total lymphocyte count versus pre-transplant) ([2]; month 12 post-transplant): below 50 % baseline
- time at which B cells recovered to baseline numbers ([2]; peripheral blood, 29 patients): ≤ 12 months
- time at which monocytes recovered to baseline numbers ([2]; peripheral blood, 29 patients): ≤ 3 months
- Donor-specific nonresponsiveness (number of patients) [3, 6]: 4
- Equal response (number of patients) [3, 6]: 1
- Hyper-response (number of patients) [3, 6]: 2
- Hypo-response (number of patients) [3, 6]: 8
- Hyper-response (number of patients) ([3]; IFN-γ kinetics, 12 months, n=15 Campath, n=8 Control, listed as CAMPATH): Two
- IFN-γ assay ([3]; maintenance Sirolimus): HYPO (3×) and HYPR (2×) and UN (3×) and EQL
- IFN-γ assay ([3]; maintenance Sirolimus, MMF): HYPO
- IFN-γ assay ([3]; maintenance Tacrolimus): HYPO
- IFN-γ assay ([3]; maintenance Tacrolimus, MMF): HYPO
- IFN-γ assay ([3]; maintenance Tacrolimus, MMF, prednisone): HYPO
- IFN-γ assay [3, 7]: UN
- percent proliferation of CD3+ cells [4]: 6.7%
- percent proliferation of CD4+ cells [4]: 7.1%
- percent proliferation of CD8+ cells [4]: 5.1%
- M12 biopsy (kidney allograft): normal histology
- M12 biopsy (kidney allograft; maintenance Sirolimus): Normal
- M12 biopsy (kidney allograft; maintenance Sirolimus, MMF): C4d+, humoral rejection
- M12 biopsy (kidney allograft; maintenance Tacrolimus): Normal
- M12 biopsy (kidney allograft; maintenance Tacrolimus, MMF): Normal
- M12 biopsy (kidney allograft; [7]): Acute rejection Banff 1A
- M06 biopsy (kidney allograft; kidney biopsy at month 6, M12 biopsy declined): M06 Biopsy Normal Declined M12
- reduction in peripheral lymphocytes [5]: 2-3 log
